From PubChem BioAssay (NCI)
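How tested: cells in 96-well plates exposed to compound for 48 hours at five concentrations. TGI marks complete inhibition of growth.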

Columns and labels:
Experiment in all cases: inhibition of tumour cell growth, NCI panel, 48 h
[1] = test system: IGROV1 ovarian
[2] = test system: A498 renal
[3] = test system: SK-OV-3 ovarian
[4] = test system: SNB-19 CNS
[5] = test system: SN12C renal
[6] = test system: SF-268 CNS
[7] = test system: 786-0 renal
[8] = test system: SNB-75 CNS
[9] = test system: HCT-116 colon
[10] = test system: SK-MEL-5 melanoma
[11] = test system: NCI-H522 lung
[12] = test system: BT-549 breast
[13] = test system: HCC-2998 colon
[14] = test system: OVCAR-5 ovarian
[15] = test system: OVCAR-8 ovarian
[16] = test system: U251 CNS
[17] = test system: UACC-257 melanoma
[18] = test system: TK-10 renal
[19] = test system: K-562 leukemia
[20] = test system: HOP-92 NSCLC
[21] = test system: DU-145 prostate
[22] = test system: MOLT-4 leukemia
[23] = test system: SF-539 CNS
[24] = test system: T-47D breast
[25] = test system: PC-3 prostate
[26] = test system: A549 NSCLC
[27] = test system: LOX IMVI melanoma
[28] = test system: EKVX NSCLC
[29] = test system: SK-MEL-28 melanoma
[30] = test system: CAKI-1 renal
[31] = test system: HS 578T breast
[32] = test system: SF-295 CNS
[33] = test system: NCI-H226 lung
[34] = test system: SW-620 colon
[35] = test system: MDA-MB-231 breast
[36] = test system: OVCAR-4 ovarian
[37] = test system: NCI/ADR-RES ovarian
[38] = test system: SK-MEL-2 melanoma
[39] = test system: MALME-3M melanoma
[40] = test system: RPMI-8226 leukemia
[41] = test system: COLO 205 colon
[42] = test system: HCT-15 colon
[43] = test system: NCI-H460 lung
[44] = test system: RXF 393 renal
[45] = test system: MCF7 breast
[46] = test system: UO-31 renal
[47] = test system: KM12 colon
[48] = test system: OVCAR-3 ovarian
[49] = test system: NCI-H23 lung
[50] = test system: ACHN renal
[51] = test system: M14 melanoma
[52] = test system: HT29 colon
[53] = test system: MDA-N
[54] = test system: MDA-MB-435
[55] = test system: CCRF-CEM leukemia
[56] = test system: UACC-62 melanoma
[57] = test system: HL-60(TB) leukemia
[58] = test system: HOP-62 NSCLC

Measured: TGI

CCN(CC)C1=Nc2ccccc2-n2c(C)cnc2C1
not listed: [58]
> 100 µM: all other assays above

Cc1cc2[nH]c3c(C#N)c(-c4ccccc4)c(CN4CCOCC4)c(=O)n3c2cc1C
not listed: [1] | [10] | [19] | [20] | [21] | [22] | [31] | [52] | [56] | [57]
> 100 µM: all other assays above
